Several values for one entry are separate records, joined by “and”; a condition that tells them apart may be missing. Identical values can stand only once.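 Assay format: 96-well plates, 48-hour exposure. GI50: concentration for 50% inhibition of growth. The concentration for full growth arrest is given as TGI.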 *1 amine or outer side, *2 acyl side, *3 side chain or, on linkers, in order; H or OH if unused. Where a SMILES comes first, the peptide text is derived from it. Bridges are numbered along the chain shown (N, C = ends). Roman numbers before positions name the chains, in order. [ ]: non-standard residue; d: D form. Actinocin(9to1) = Cc1c2oc3c(C)ccc(C(=O)[*:1])c3nc-2c(C(=O)[*:2])c(N)c1=O; NMeF = CN[CH](Cc1ccccc1)C(=O)O; Sar = CNCC(=O)O

The values that follow come from PubChem BioAssay (NCI).

Some test systems named below: HS 578T breast; NCI-H226 lung; M14 melanoma; OVCAR-5 ovarian; MDA-MB-435; SK-OV-3 ovarian; A498 renal; SF-539 CNS; SNB-19 CNS; RXF 393 renal.
Holding throughout (test): NCI tumour cell line growth inhibition, 48 h

As to `O=C1C(Cl)=C(Nc2cccc(C(F)(F)F)c2)C(=O)N1Cc1ccc(Cl)cc1`, the GI50 in the test on HS 578T breast is 0.711 µM; in the test with NCI-H226 lung, less than 0.0129 µM; with M14 melanoma it was 1.34 µM; in the test on OVCAR-5 ovarian, 2.2 µM; with SK-OV-3 ovarian, 3.78 µM; in the test with A498 renal, 0.73 µM. The values for the GI50 with SF-539 CNS and in the test with SNB-19 CNS were 0.128 µM and 6.37 µM, respectively. Moreover, the TGI in the test on HS 578T breast was 33 µM; in the test on M14 melanoma, 18.5 µM; in the test on OVCAR-5 ovarian it was 23.5 µM; in the test with MDA-MB-435, 4.46 µM; in the test on SK-OV-3 ovarian it was 20.8 µM; with A498 renal it was 15.7 µM. Also, the TGI with SF-539 CNS was 2.09 µM; in the test on SNB-19 CNS, 24.1 µM.

Turning to `O=C(O)c1cc2ccccc2c2c1C(=O)c1ccccc1-2`, the TGI with HS 578T breast, in the test with NCI-H226 lung, with M14 melanoma, with OVCAR-5 ovarian, with MDA-MB-435 and in the test with SK-OV-3 ovarian was more than 100 µM in each case. The TGI in the test with SF-539 CNS, in the test with RXF 393 renal and with SNB-19 CNS was more than 100 µM each time.

Take `O=C(NC(=O)c1ccccc1[N+](=O)[O-])Nc1ccc(Oc2ncc(Cl)cn2)c(C(F)(F)F)c1`: the TGI in the test on HS 578T breast was 2.45 µM; in the test on NCI-H226 lung it was 1.39 µM; with M14 melanoma, 39.4 µM; with OVCAR-5 ovarian, 80.4 µM; with MDA-MB-435, less than 0.0123 µM; in the test with SK-OV-3 ovarian it was more than 46.5 µM. For the same compound, the TGI in the test on A498 renal was found to be 1.29 µM; with SF-539 CNS, 0.489 µM; in the test with SNB-19 CNS, 85.7 µM.

For `Cc1ccc(Sc2cc3c(oc2=O)-c2ccccc2OC3O)cc1` (centres undefined), the GI50 in the test on HS 578T breast was 26.1 µM; in the test on NCI-H226 lung, 30 µM; in the test with M14 melanoma, 22.4 µM; with OVCAR-5 ovarian, 23.9 µM; with MDA-MB-435, 27.2 µM; in the test on A498 renal it was 26.1 µM. In addition, the figures for the GI50 in the test on SF-539 CNS, with RXF 393 renal and in the test with SNB-19 CNS were 19.3 µM, 26.8 µM and 25 µM, respectively. For the same compound, the TGI amounted to 61.7 µM with HS 578T breast; 75 µM in the test with NCI-H226 lung; 43.5 µM in the test with M14 melanoma; 49 µM in the test on OVCAR-5 ovarian; 54.6 µM in the test on MDA-MB-435; 51.5 µM in the test on A498 renal. The TGI was 33.8 µM in the test on SF-539 CNS, 62.2 µM with RXF 393 renal and 62.1 µM with SNB-19 CNS.

Consider `O=C1OCC2=C1C(c1ccccc1)c1cc3c(cc1N2CCO)OCCO3` (centres undefined), for which the GI50 in the test on HS 578T breast was 0.206 µM; with NCI-H226 lung it was 10.8 µM; in the test on M14 melanoma it was 0.23 µM; in the test with OVCAR-5 ovarian, 2.12 µM; in the test with MDA-MB-435, 0.113 µM; with SK-OV-3 ovarian, 0.348 µM. In addition, the GI50 in the test with A498 renal was 0.188 µM; in the test with SF-539 CNS it was 0.298 µM; in the test with SNB-19 CNS, 0.921 µM. For the same compound, the TGI is 10.8 µM with HS 578T breast; more than 50 µM with NCI-H226 lung; 1.66 µM with M14 melanoma; more than 50 µM in the test with OVCAR-5 ovarian; 0.32 µM in the test with MDA-MB-435; 13.4 µM with SK-OV-3 ovarian. In addition, the TGI in the test on A498 renal was 4.05 µM; in the test with SNB-19 CNS, more than 16.8 µM.

Take `Cc1coc2c1C(OC(=O)C(C)C)C1(C)C(C)CCC(O)C1C2=O` (centres undefined): the TGI in the test with HS 578T breast, in the test on NCI-H226 lung, with M14 melanoma, with OVCAR-5 ovarian, in the test with MDA-MB-435 and with SK-OV-3 ovarian was more than 100 µM in each case. Also, the TGI with A498 renal, in the test on SF-539 CNS and in the test with RXF 393 renal was more than 100 µM each time.

`O=C(O)/C(=C\c1ccncc1)c1cccc2ccccc12`: the TGI in the test with HS 578T breast, in the test on M14 melanoma, in the test on OVCAR-5 ovarian, in the test with MDA-MB-435, in the test on SK-OV-3 ovarian and in the test on SF-539 CNS was more than 100 µM each time. For the same compound, the TGI with RXF 393 renal and with SNB-19 CNS was more than 100 µM each time.

Regarding `O=C(CCCCC(=O)N/N=C\c1ccccc1O)N/N=C\c1ccccc1O`, the GI50 with HS 578T breast was 15.2 µM; in the test with NCI-H226 lung it was 3.12 µM; with M14 melanoma it was 3.39 µM; with OVCAR-5 ovarian, more than 100 µM; in the test on SK-OV-3 ovarian, 5.63 µM; in the test with A498 renal, more than 100 µM. Besides, the GI50 in the test on SF-539 CNS is 3.66 µM; in the test with RXF 393 renal, 3.76 µM; in the test on SNB-19 CNS, 5.88 µM. The TGI with HS 578T breast, in the test with NCI-H226 lung, with M14 melanoma, in the test with OVCAR-5 ovarian, with SK-OV-3 ovarian and in the test on A498 renal was more than 100 µM throughout. Also, the TGI with SF-539 CNS, in the test on RXF 393 renal and with SNB-19 CNS was more than 100 µM throughout.

As to `COc1ccccc1C(=O)N(C)c1ccc(Cl)c(C(=O)OC(C)C)c1`, the TGI in the test on HS 578T breast, in the test with NCI-H226 lung, in the test on M14 melanoma, in the test on OVCAR-5 ovarian, in the test with MDA-MB-435 and with SK-OV-3 ovarian was more than 100 µM each time. Further, the TGI with A498 renal, in the test on SF-539 CNS and in the test on SNB-19 CNS was more than 100 µM in each case.

On to `C[C@@H](Nc1nc(Nc2ccc(F)c(Cl)c2)nc2ccccc12)C1CC1`, for which the GI50 in the test with HS 578T breast was 6.02 µM; in the test on NCI-H226 lung it was 6.37 µM; in the test on M14 melanoma, 1.87 µM; in the test with OVCAR-5 ovarian, 3.73 µM; in the test with MDA-MB-435, 3.93 µM; in the test on SK-OV-3 ovarian, 5.36 µM. The GI50 was 3.16 µM in the test with SF-539 CNS and 4.44 µM in the test with SNB-19 CNS. Moreover, the TGI is 25.6 µM with HS 578T breast; 35.9 µM in the test with NCI-H226 lung; 4.12 µM with M14 melanoma; 16 µM in the test with OVCAR-5 ovarian; 15 µM in the test on MDA-MB-435; 17.3 µM with SK-OV-3 ovarian. Also, the TGI with SF-539 CNS stood at 12.4 µM; in the test on SNB-19 CNS, 22.1 µM.

As to `Cc1c2oc3c(C)ccc(C(=O)NC4C(=O)NC(C(C)C)C(=O)N5CCCC5C(=O)N(C)CC(=O)N(C)C(Cc5ccccc5)C(=O)OC4C)c3nc-2c(C(=O)NC2C(=O)NC(C(C)C)C(=O)N3CCCC3C(=O)N(C)CC(=O)N(C)C(Cc3ccccc3)C(=O)OC2C)c(N)c1=O` (centres undefined) (I: TVP[Sar][NMeF] / II: TVP[Sar][NMeF]; ester I:1-I:C, II:1-II:C; linker I:N-II:N via Actinocin(9to1); configuration not given here), the TGI in the test on HS 578T breast is < 0.01 µM and 0.0685 µM; with M14 melanoma, 0.126 µM; in the test on OVCAR-5 ovarian, 2.01 µM and > 0.41 µM; with MDA-MB-435, < 0.01 µM and 0.095 µM; with A498 renal, < 0.01 µM and 0.0378 µM; with SF-539 CNS, < 0.01 µM and 0.0439 µM. The TGI was < 0.01 µM and 0.0305 µM in the test on RXF 393 renal; 0.118 µM and > 0.381 µM in the test on SNB-19 CNS. In addition, the GI50 in the test on OVCAR-5 ovarian was < 0.01 µM and 0.0335 µM; with SNB-19 CNS, < 0.01 µM and 0.00378 µM.
